# Source: patent publication US10253039B2, “Inhibitors of bacterial DNA gyrase with efficacy against gram-negative bacteria” (priority 2014, dated 2019)
# Where two headings read alike, the source gives them in different places.
# Experiments:
# Format in all cases: cell-based
# Streptococcus pyogenes = assay: MIC, 20-strain panel
# In short: (§1)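 After 16-18 h shaking incubation at 37 °C, MIC was read visually as the lowest concentration without turbidity. Compounds were 2-fold serially diluted in LB medium seeded with a 1:10000 inoculum, following the CLSI microdilution protocol.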
# [1] = tested on: Staphylococcus aureus subsp. aureus; assay: MIC, 20-strain panel; conditions: read-out: MIC
# In short: as §1
# Shigella flexneri = assay: MIC, 20-strain panel
# In short: as §1
# [2] = tested on: Staphylococcus saprophyticus subsp. saprophyticus; assay: MIC, 20-strain panel
# In short: as §1
# E. coli MG1655 = assay: MIC, 20-strain panel; conditions: Escherichia coli, read-out: MIC
# In short: as §1
# [3] = tested on: Klebsiella pneumoniae subsp. pneumoniae; assay: MIC, 20-strain panel
# In short: as §1
# [4] = tested on: Salmonella enterica subsp. enterica typhimurium; assay: MIC, 20-strain panel
# In short: as §1
# E. coli JW5503 (deltolC) = assay: MIC, 20-strain panel; conditions: Escherichia coli
# In short: as §1
# Streptococcus agalactiae = assay: MIC, 20-strain panel
# In short: as §1
# [5] = tested on: Staphylococcus epidermidis; assay: MIC, 20-strain panel
# In short: as §1
# Edwardsiella tarda = assay: MIC, microdilution in 96-well plates
# In short: as §1
# E. coli BW25113 = assay: MIC, microdilution in 96-well plates; conditions: Escherichia coli, read-out: MIC
# In short: as §1
# [6] = H: Staphylococcus aureus subsp. aureus
# [7] = E: Klebsiella pneumoniae subsp. pneumoniae
# [8] = F: Salmonella enterica subsp. enterica Typhimurium
# [9] = Staphylococcus aureus subsp. aureus
# [10] = Klebsiella pneumoniae subsp. pneumoniae
# [11] = Salmonella enterica subsp. enterica Typhimurium
Compound,MIC (Streptococcus pyogenes) [µg/mL],"MIC [1, 6] [µg/mL]",MIC (Shigella flexneri; G: Shigella flexneri) [µg/mL],MIC [2] [µg/mL],"MIC (E. coli MG1655; MG1655, A: E. coli MG1655) [µg/mL]","MIC [3, 7] [µg/mL]","MIC [4, 8] [µg/mL]",MIC (E. coli JW5503 (deltolC); C: E. coli JW5503 (deltolC)) [µg/mL],MIC (Streptococcus agalactiae) [µg/mL],MIC [5] [µg/mL],MIC (Edwardsiella tarda; D: Edwardsiella tarda) [µg/mL],"MIC (E. coli BW25113; BW25113, B: E. coli BW25113) [µg/mL]","MIC [1, 9] [µg/mL]",MIC (Shigella flexneri) [µg/mL],"MIC (E. coli MG1655; MG1655, E. coli MG1655) [µg/mL]","MIC [3, 10] [µg/mL]","MIC [4, 11] [µg/mL]",MIC (E. coli JW5503 (deltolC); E. coli JW5503 (deltolC)) [µg/mL],MIC (Edwardsiella tarda) [µg/mL],"MIC (E. coli BW25113; BW25113, E. coli BW25113) [µg/mL]"
CC(C)Oc1ccc(CN2CC[C@@H](NS(=O)(=O)c3cc(C(F)(F)F)ccc3F)C2)cc1 [Compound 4],> 8,> 8,> 8,> 8,> 8,> 8,> 8,0.5,> 8,> 8,> 8,> 8,,,,,,,,
O=S(=O)(N[C@@H]1CCN(Cc2ccc(-c3ccccc3)cc2)C1)c1ncc[nH]1 [Compound 16],> 8,> 8,> 8,> 8,> 8,> 8,8,2,> 8,> 8,> 8,> 8,,,,,,,,
Cc1ccncc1S(=O)(=O)N[C@@H]1CCN(Cc2ccc(-c3ccccc3)cc2)C1 [Compound 137],> 8,,,> 8,,,,,> 8,> 8,,,> 8,> 8,> 8,> 8,> 8,2,> 8,> 8
O=S(=O)(N[C@@H]1CCN(Cc2ccc(-c3cncnc3)cc2)C1)c1cccc(OC(F)(F)F)c1 [Compound 63],> 8,> 8,> 8,> 8,> 8,> 8,> 8,4,> 8,> 8,> 8,> 8,,,,,,,,
CC(C)Oc1ccc(CN2CC[C@@H](NS(=O)(=O)c3cc(F)cc(C(F)(F)F)c3)C2)cc1 [Compound 78],> 8,> 8,> 8,> 8,> 8,> 8,> 8,~8,> 8,> 8,> 8,> 8,,,,,,,,
O=S(=O)(N[C@@H]1CCN(Cc2ccc(-c3nccs3)cc2)C1)c1cccc(OC(F)(F)F)c1 [Compound 36],> 8,> 8,> 8,> 8,> 8,> 8,> 8,2,> 8,> 8,> 8,> 8,,,,,,,,
CC(C)Oc1ccc(CN2CC[C@@H](NS(=O)(=O)c3ccc4c(c3)CC(=O)N4C)C2)cc1 [Compound 179],> 8,,,> 8,,,,,> 8,> 8,,,> 8,> 8,> 8,> 8,> 8,> 8,> 8,> 8
Cn1ccc(-c2ccc(CN3CC[C@@H](NS(=O)(=O)c4cccc(C#N)c4)C3)cc2)n1 [Compound 170],> 8,,,> 8,,,,,> 8,> 8,,,> 8,> 8,> 8,> 8,> 8,2,> 8,> 8
O=S(=O)(N[C@@H]1CCN(Cc2ccc(-c3ccncc3)cc2)C1)c1cccc(OC(F)(F)F)c1 [Compound 15],> 8,> 8,> 8,> 8,> 8,> 8,> 8,4,> 8,> 8,> 8,> 8,,,,,,,,
N#Cc1cccc(S(=O)(=O)N[C@@H]2CCN(Cc3ccn(-c4ccccc4)n3)C2)c1 [Compound 126],> 8,> 8,> 8,> 8,> 8,> 8,> 8,> 8,> 8,> 8,> 8,> 8,,,,,,,,
N#Cc1cccc(S(=O)(=O)N[C@@H]2CCN(Cc3ccc4c(c3)OCCO4)C2)c1 [Compound 9],> 8,> 8,> 8,> 8,> 8,> 8,> 8,> 8,> 8,> 8,> 8,> 8,,,,,,,,
O=S(=O)(N[C@@H]1CCN(Cc2ccc3c(c2)OCCO3)C1)c1cccc(C(F)(F)F)c1 [Compound 60],> 8,> 8,> 8,> 8,> 8,> 8,> 8,8,> 8,> 8,> 8,> 8,,,,,,,,
O=S(=O)(N[C@@H]1CCN(Cc2ccc(-c3ccccc3)cc2)C1)c1ccc(Cl)cn1 [Compound 141],> 8,,,> 8,,,,,> 8,> 8,,,> 8,> 8,> 8,> 8,> 8,~8,> 8,> 8
